The subject of one test is MDA-453 cells. Kind of test: Hoechst Dye apoptosis assay, MDA-453. Type of test: cell-based, human. Particulars: 10 μM, 12 hours, MDA-453, low Bcl-2 expression. An excerpt: (§1) Bcl-2 protein expression in human breast and other cancer cell line is characterized herein. Cell lines MCF-7, MDA-231 and MDA-361 express high levels of Bcl-2; MDA-468, BT474 and MDA-435 express median levels. […] Human myeloid leukemia cell HL-60 expresses the highest level of Bcl-2 protein among all the cell lines examined. Accordingly, MDA-231 and HL-60 cell lines with high Bcl-2 expression are positive cells and MDA-453 and T47D are negative control cells. The level of Bcl-2 protein expression is detected by Western blotting.
(§2) Using a Hoechst Dye assay, cells are treated at different doses for 12 hours and apoptotic cells are visually identified and counted under the microscope. Induction of apoptosis is evident after the treatment with Formula II at 10 μM in MDA-453 or T 47D cell lines, cells with low Bcl-2 expression.

In another test the test system is T 47D cells. Kind of test: Hoechst Dye apoptosis assay, T47D. Particulars: 10 μM, 12 hours, low Bcl-2 expression. Type of test: cell-based, human.
From the text: as §1, §2

Test [1] deals with MDA-231 cells. Kind of test: Hoechst Dye apoptosis assay, MDA-231. In kind it is cell-based, human. Particulars: 10 μM, 12 hours, MDA-231, high Bcl-2 expression.
From the text: as §1, §2

Test [2] concerns HL-60 cells. Kind of test: Hoechst Dye apoptosis assay, HL-60. Type of test: cell-based, human. Particulars: 10 μM, 12 hours, HL-60, high Bcl-2 expression.
From the text: as §1, §2

The subject of test [3] is MDA-231 cells. As to the kind of experiment: Annexin-V FACS apoptosis assay, MDA-231. In kind it is cell-based, human. Particulars: 24 hours. The procedure: (§3) The Annexin-V FACS assay yields a more quantitative assessment of the ability of Formula II to induce of apoptosis in HL-60 and MDA-231 cells. MDA-231 cells treated with 0 (untreated), 4 and 10 μM of Formula II for 24 hours provide 0, 13% and 20.0% apoptotic cells, respectively, while HL-60 cells treated with 0, 5, 10, and 20 μM of Formula II for 24 hours provide 0, 24%, 31% and 67% of apoptotic cells, respectively (FIG. 3). Therefore, Formula II induces apoptosis in a highly dose-dependent manner in MDA-231 and HL-60 cell lines with Bcl-2 protein overexpression.

For test [4], the system named is HL-60 cells. Kind of test: Annexin-V FACS apoptosis assay, HL-60. Type of test: cell-based, human. Particulars: 24 hours. How it is done: as §3
The subject of test [5] is HL-60 cells. Kind of test: Trypan-blue exclusion cell survival assay, HL-60. Type of test: cell-based. Particulars: Homo sapiens; HL-60, trypan-blue exclusion; read-out: cell killing IC50. The procedure:
(§4) FIG. 3. Illustrated the effects of the compound of formula II on cell viability. Cells are plated in 24-well plates, incubated with said compound at appropriate concentrations for 14 hr. Cell viability is determined by trypan blue exclusion with hemocytometer. Percent of viable cells, as compared with untreated cells, is plotted against drug concentration.
(§5) The ability of Formula II to inhibit cell viability is highly specific and correlates well with the Bcl-2 protein expression level in these cancer cells.

The subject of test [6] is MDA-231 cells. As to the kind of experiment: Trypan-blue exclusion cell survival assay, MDA-231. In kind it is cell-based. Particulars: Homo sapiens, MDA-MB-231; MDA-231, trypan-blue exclusion; read-out: cell killing IC50. The procedure: as §4, §5
Test [7] concerns the target Bcl-2 (GST-fused soluble protein) / Flu-Bak-BH3 peptide (Homo sapiens, UniProt P10415). Particulars: competitive FP assay, FIG. 1.

Chain of Bcl-2 (GST-fused soluble protein) / Flu-Bak-BH3 peptide (P10415 1-205 limits assumed): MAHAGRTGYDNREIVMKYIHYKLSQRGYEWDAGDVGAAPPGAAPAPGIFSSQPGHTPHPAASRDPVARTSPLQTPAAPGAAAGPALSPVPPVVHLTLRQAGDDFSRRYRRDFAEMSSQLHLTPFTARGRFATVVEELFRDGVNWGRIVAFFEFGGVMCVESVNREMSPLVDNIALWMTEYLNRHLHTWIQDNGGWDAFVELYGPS

As to `COc1ccc2c(c1)CCc1cc(OC)ccc1[N+]([O-])=[N+]2[O-]` [Formula II, 2,9-dimethoxy-11,12-dihydrodibenzo[c,g][1,2] diazocine-5,6-dioxide], the induction of apoptosis result is recorded as “evident” in the test on MDA-453 cells, “evident” in the test on T 47D cells, “significant apoptosis” with MDA-231 cells [1] and “significant apoptosis” with HL-60 cells [2]. For the same molecule, the apoptotic cells was 13% in the test on MDA-231 cells [3] (MDA-231, 4 μM); 20.0% in the test with MDA-231 cells [3] (MDA-231, 10 μM); 24% with HL-60 cells [4] (HL-60, 5 μM); 31% in the test with HL-60 cells [4] (HL-60, 10 μM); 67% in the test with HL-60 cells [4] (HL-60, 20 μM). Besides, the IC50 (usually the concentration at which inhibition is half-maximal) in the test with HL-60 cells [5] was 12 µM; in the test with MDA-231 cells [6], 15 µM. In [7], the “inhibition of the binding of the Bak-BH3 peptide to Bcl-2 in vitro” value is recorded as “inhibits the binding”.

Values taken from patent publication US6703382B2, “Small molecule inhibitors targeted at Bcl-2” (Georgetown University Medical Center, priority 2000, dated 2004).
